Results taken from US12344610B2, “APOL1 inhibitors and methods of use” (Maze Therapeutics, Inc., priority 2022, dated 2025).

Tests used:
[1] = test system: HEK293 clonal cell line overexpressing APOL1 G1; assay: APOL1 G1 HEK293 cell rescue assay (Example B3); assay type: cell-based; conditions: Homo sapiens, HEK293, HEK293 clonal line overexpressing APOL1 G1; geometric mean of at least 2 runs; † = single run; ¥ = concentration at 50% rescue estimated (no sigmoidal curve)
Outline: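 Rescue of cell death caused by APOL1 G1 overexpression was measured in a clonal HEK293 line. Compounds were tested in duplicate on one plate, and EC50s were geometric means across at least two runs on different days. Some values are estimated 50%-rescue concentrations where curve fitting failed.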

[2] = test system: Trypanosoma brucei Lister 427 VSG221 with APOL1 G0 recombinant protein; assay: APOL1 G0 trypanosome cell rescue assay (Example B5); assay type: cell-based; conditions: Trypanosoma brucei, 20 h, read-out: APOL1 G0 Trypanosome Rescue EC50, Trypanosoma brucei Lister 427 VSG221 with APOL1 G0 recombinant protein, 20 hours, CellTiter-Glo; geometric mean of at least 2 assay runs; † = single assay run
Outline: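 Luminescent ATP read-out (CellTiter-Glo) of trypanosome viability after 20 h at 37° C. Bloodstream T. brucei Lister 427 VSG221, 250/well in modified HMI-9, were exposed to recombinant mature APOL1 (aa 28-398) from a 2 μg/mL addition, plus compound in 11-point 2-fold series.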

| SMILES | EC50 [1] [nM] | EC50 [2] [nM] |
| --- | --- | --- |
| C[C@]1(O)C[C@@H](N2C(=O)CCc3cc(OCCN4CCC5(CC4)C(=O)Nc4ccc(OC(F)F)cc45)cnc32)C1 [Cmpd 325, 5-(difluoromethoxy)-1′-[2-({7-oxo-8-[(cis)-3-hydroxy-3-methylcyclobutyl]-5,6,7,8-tetrahydro-1,8-naphthyridin-3-yl}oxy)ethyl]-1,2-dihydrospiro[indole-3,4′-piperidin]-2-one] | 197 | 213 |
| CC(c1ncc(OCCN2CCC3(CC2)C(=O)Nc2ccc(Cl)cc23)cn1)S(C)(=O)=O (stereo not drawn) [Compound 1, 5-Chloro-1′-(2-{[2-(1-methanesulfonylethyl)pyrimidin-5-yl]oxy}ethyl)-1,2-dihydrospiro[indole-3,4′-piperidin]-2-one] | 302 | 225 |
| CS(=O)(=O)C1(c2ncc(OCCN3CCC4(CC3)C(=O)Nc3ccc(Cl)cc34)cn2)CC1 [Compound 4, 5-chloro-1′-(2-{[2-(1-methanesulfonylcyclopropyl)pyrimidin-5-yl]oxy}ethyl)-1,2-dihydrospiro[indole-3,4′-piperidin]-2-one] | 177 | 116 |
| Cc1nc(-c2ccc(OCCN3CCC4(CC3)C(=O)N(C)c3ccccc34)cc2)no1 [Compound 35, 1-methyl-1′-{2-[4-(5-methyl-1,2,4-oxadiazol-3-yl)phenoxy]ethyl}-1,2-dihydrospiro[indole-3,4′-piperidin]-2-one] | 488 | > 4000 |
| CC(=O)N1CCCc2cc(OCCN3CCC4(CC3)C(=O)N(C)c3ccccc34)ccc21 [Compound 36, 1′-{2-[(1-acetyl-1,2,3,4-tetrahydroquinolin-6-yl)oxy]ethyl}-1-methyl-1,2-dihydrospiro[indole-3,4′-piperidin]-2-one] | > 2150 | > 4000 |
| CS(=O)(=O)c1c(F)cc(OCCN2CCC3(CC2)C(=O)Nc2ccccc23)cc1F [Compound 42, 1′-[2-(3,5-difluoro-4-methanesulfonylphenoxy)ethyl]-1,2-dihydrospiro[indole-3,4′-piperidin]-2-one] | 1080 | 1260 |
| O=C1Nc2ccc(Cl)cc2C12CCN(CCOc1ccc(S(=O)(=O)C3CC3)cc1)CC2 [Compound 43, 5-chloro-1′-{2-[4-(cyclopropanesulfonyl)phenoxy]ethyl}-1,2-dihydrospiro[indole-3,4′-piperidin]-2-one] | 131 | 52.2 |
| O=C1Nc2ccccc2C12CCN(CCOc1ccc(S(=O)(=O)C(F)F)cc1)CC2 [Compound 44, 1′-[2-(4-difluoromethanesulfonylphenoxy)ethyl]-1,2-dihydrospiro[indole-3,4′-piperidin]-2-one] | 478 | 331 |
| NC(=O)c1ccc(OCCN2CCC3(CC2)C(=O)Nc2ccc(Cl)cc23)cc1 [Compound 45, 4-(2-{5-chloro-2-oxo-1,2-dihydrospiro[indole-3,4′-piperidin]-1′-yl}ethoxy)benzamide] | 387 | 476 |
| NC(=O)c1ccc(OCCN2CCC3(CC2)C(=O)Nc2ccc(Cl)cc23)cc1F [Compound 46, 4-(2-{5-chloro-2-oxo-1,2-dihydrospiro[indole-3,4′-piperidin]-1′-yl}ethoxy)-2-fluorobenzamide] | 253 | 156 |
| Cc1cc(OCCN2CCC3(CC2)C(=O)Nc2ccc(Cl)cc23)ccc1C(N)=O [Compound 49, 4-(2-{5-chloro-2-oxo-1,2-dihydrospiro[indole-3,4′-piperidin]-1′-yl}ethoxy)-2-methylbenzamide] | 260 | 213 |
| CS(=O)(=O)c1ccc(OCCN2CCC3(CC2)C(=O)Nc2ccc(Cl)cc23)cc1C#N [Compound 50, 5-(2-{5-chloro-2-oxo-1,2-dihydrospiro[indole-3,4′-piperidin]-1′-yl}ethoxy)-2-methanesulfonylbenzonitrile] | 91.1 | 30 |
| CS(=O)(=O)N1CCCc2cc(OCCN3CCC4(CC3)C(=O)Nc3ccc(Cl)cc34)ccc21 [Compound 53, 5-chloro-1′-{2-[(1-methanesulfonyl-1,2,3,4-tetrahydroquinolin-6-yl)oxy]ethyl}-1,2-dihydrospiro[indole-3,4′-piperidin]-2-one] | 219 | 156 |
| CC(=O)N1CCCc2cc(OCCN3CCC4(CC3)C(=O)Nc3ccc(Cl)cc34)ccc21 [Compound 56, 1′-{2-[(1-acetyl-1,2,3,4-tetrahydroquinolin-6-yl)oxy]ethyl}-5-chloro-1,2-dihydrospiro[indole-3,4′-piperidin]-2-one] | 330 | 296 |
| CC(=O)N1Cc2ccc(OCCN3CCC4(CC3)C(=O)Nc3ccc(Cl)cc34)cc2C1 [Compound 57, 1′-{2-[(2-acetyl-2,3-dihydro-1H-isoindol-5-yl)oxy]ethyl}-5-chloro-1,2-dihydrospiro[indole-3,4′-piperidin]-2-one] | 390 | 673 |
| CNC(=O)N1CCCc2cc(OCCN3CCC4(CC3)C(=O)Nc3ccc(Cl)cc34)ccc21 [Compound 60, 6-(2-{5-chloro-2-oxo-1,2-dihydrospiro[indole-3,4′-piperidin]-1′-yl}ethoxy)-N-methyl-1,2,3,4-tetrahydroquinoline-1-carboxamide] | 183 | 189 |
| O=C1Nc2ccc(Cl)cc2C12CCN(CCOc1ccc3nccnc3c1)CC2 [Compound 62, 5-chloro-1′-[2-(quinoxalin-6-yloxy)ethyl]-1,2-dihydrospiro[indole-3,4′-piperidin]-2-one] | 433 | 407 |
| CS(=O)(=O)c1ccc(OCCN2CCC3(CC2)C(=O)Nc2ccc(Cl)cc23)cc1F [Compound 63, 5-chloro-1′-[2-(3-fluoro-4-methanesulfonylphenoxy)ethyl]-1,2-dihydrospiro[indole-3,4′-piperidin]-2-one] | 160 | 118 |
| CS(=O)(=O)c1ccc(OCCN2CCC3(CC2)C(=O)Nc2ccc(Cl)cc23)cn1 [Compound 64, 5-chloro-1′-{2-[(6-methanesulfonylpyridin-3-yl)oxy]ethyl}-1,2-dihydrospiro[indole-3,4′-piperidin]-2-one] | 516 | 503 |
| CN1C(=O)Cc2cc(OCCN3CCC4(CC3)C(=O)Nc3ccc(Cl)cc34)ccc21 [Compound 65, 5-chloro-1′-{2-[(1-methyl-2-oxo-2,3-dihydro-1H-indol-5-yl)oxy]ethyl}-1,2-dihydrospiro[indole-3,4′-piperidin]-2-one] | 351 | 318 |
| Cc1ccc2c(c1)C1(CCN(CCOc3ccc(S(C)(=O)=O)cc3)CC1)C(=O)N2 [Compound 66, 1′-[2-(4-methanesulfonylphenoxy)ethyl]-5-methyl-1,2-dihydrospiro[indole-3,4′-piperidin]-2-one] | 323 | 246 |
| Cn1ncc2cc(OCCN3CCC4(CC3)C(=O)Nc3ccc(Cl)cc34)ccc21 [Compound 68, 5-chloro-1′-{2-[(1-methyl-1H-indazol-5-yl)oxy]ethyl}-1,2-dihydrospiro[indole-3,4′-piperidin]-2-one] | 368 | 358 |
| CS(=O)(=O)c1ccc(OCCN2CCC3(CC2)C(=O)Nc2ccc(Cl)cc23)cc1 [Compound 69, 5-chloro-1′-[2-(4-methanesulfonylphenoxy)ethyl]-1,2-dihydrospiro[indole-3,4′-piperidin]-2-one] | 311 | 153 |
| Cn1ncc2cc(OCCN3CCC4(CC3)C(=O)Nc3ccccc34)ccc21 [Compound 70, 1′-{2-[(1-methyl-1H-indazol-5-yl)oxy]ethyl}-1,2-dihydrospiro[indole-3,4′-piperidin]-2-one] | > 2530 | > 4000 |
| CS(=O)(=O)c1ccc(OCCN2CCC3(CC2)C(=O)Nc2ccc(C#N)cc23)cc1 [Compound 71, 1′-[2-(4-methanesulfonylphenoxy)ethyl]-2-oxo-1,2-dihydrospiro[indole-3,4′-piperidine]-5-carbonitrile] | 1340 | 814 |
| CS(=O)(=O)c1ccc(OCCN2CCC3(CC2)C(=O)Nc2ccc(Br)cc23)cc1 [Compound 72, 5-bromo-1′-[2-(4-methanesulfonylphenoxy)ethyl]-1,2-dihydrospiro[indole-3,4′-piperidin]-2-one] | 161 | 128 |
| CN(c1ccc(OCCN2CCC3(CC2)C(=O)Nc2ccc(C#N)cc23)cc1)S(C)(=O)=O [Compound 75, N-[4-(2-{5-cyano-2-oxo-1,2-dihydrospiro[indole-3,4′-piperidin]-1′-yl}ethoxy)phenyl]-N-methylmethanesulfonamide] | 406 | 383 |
| CN(c1ccc(OCCN2CCC3(CC2)C(=O)Nc2ccc(Cl)cc23)cc1)S(C)(=O)=O [Compound 76, N-[4-(2-{5-chloro-2-oxo-1,2-dihydrospiro[indole-3,4′-piperidin]-1′-yl}ethoxy)phenyl]-N-methylmethanesulfonamide] | 190 | 106 |
| CS(C)(=O)=Nc1ccc(OCCN2CCC3(CC2)C(=O)Nc2ccc(C#N)cc23)cc1 [Compound 77, 1′-[2-(4-{[dimethyl(oxo)-λ^6-sulfanylidene]amino}phenoxy)ethyl]-2-oxo-1,2-dihydrospiro[indole-3,4′-piperidine]-5-carbonitrile] | > 4760 | > 4000 |
| CN1C(=O)CCc2cc(OCCN3CCC4(CC3)C(=O)Nc3ccc(Cl)cc34)cnc21 [Compound 78, 5-chloro-1′-{2-[(8-methyl-7-oxo-5,6,7,8-tetrahydro-1,8-naphthyridin-3-yl)oxy]ethyl}-1,2-dihydrospiro[indole-3,4′-piperidin]-2-one] | 128 | 95.2 |
